# Like-named read-outs stand apart in the source and are kept apart here. Marks after values point to notes of the source that are not given here.
# Experiments:
# [1] = IV and PO pharmacokinetic studies of prodrug salts (Iab, Ibb, Icb) in the monkey, with historical parent data; type: in vivo, cynomolgus monkeys
# Protocol: The IV and PO studies of Iab were conducted in a crossover fashion in three male cynomolgus monkeys (11±1.2 kg, Charles River Biomedical Research Foundation, Houston, Tex.). There was a two-week washout period between the IV and PO studies.
# In the IV study, Iab was infused via the femoral vein at 1.3 mg/kg (free acid, or 1.1 mg/kg of IVa equivalent) over 5 min at a constant rate of 0.1 mL/kg/min. The concentration of the dosing solution was 2.6 mg/mL, and the dosing volume was 0.5 mL/kg. Serial blood samples were collected from the femoral artery before dosing and at 5, 10, 15, 30, 45 min, 1, 2, 4, 6, 8 and 24 hr after dosing.
# In the PO study, the monkeys were fasted overnight before dosing. Iab was administered by oral gavage at 7.1 mg/kg (free acid, or 5.6 mg/kg of IVa equivalent). The concentration of the dosing solution was 14.2 mg/mL, and the dosing volume was 0.5 mL/kg. Serial blood samples were collected before dosing and at 15, 30, 45 min, 1, 2, 4, 6, 8 and 24 hr after dosing.
# The IV and PO studies of Ibb were conducted in a crossover fashion in three male cynomolgus monkeys (9.9±2.4 kg, Charles River Biomedical Research Foundation, Houston, Tex.). There was a two-week washout period between the IV and PO studies.
# The concentration of the dosing solution was 2.7 mg/mL, and the dosing volume was 0.5 mL/kg. Serial blood samples were collected from the femoral artery before dosing and at 5, 10, 15, 30, 45 min, 1, 2, 4, 6, 8 and 24 hr after dosing.
# In the PO study, the monkeys were fasted overnight before dosing. […] The concentration of the dosing solution was 5.8 mg/mL, and the dosing volume was 1 mL/kg. Serial blood samples were collected before dosing and at 15, 30, 45 min, 1, 2, 4, 6, 8 and 24 hr after dosing.
# The IV and PO studies of Icb were conducted in a crossover fashion in three male cynomolgus monkeys (10±1.6 kg, Charles River Biomedical Research Foundation, Houston, Tex.). There was a two-week washout period between the IV and PO studies.
# The concentration of the dosing solution was 2.8 mg/mL, and the dosing volume was 0.5 mL/kg. Serial blood samples were collected from the femoral artery before dosing and at 5, 10, 15, 30, 45 min, 1, 2, 4, 6, 8 and 24 hr after dosing.
# In the PO study, the monkeys were fasted overnight before dosing. […] The concentration of the dosing solution was 9.8 mg/mL, and the dosing volume was 0.5 mL/kg. Serial blood samples were collected before dosing and at 15, 30, 45 min, 1, 2, 4, 6, 8 and 24 hr after dosing.
# [2] = IV and PO pharmacokinetic studies of prodrug salts (Iab, Ibb, Icb) in the rat, with historical parent data; type: in vivo, Sprague-Dawley rats
# Protocol: (§1) All blood samples (0.3 mL) were colleted in microtainers containing K2EDTA (Becton Dickinson, Franklin Lakes, N.J.) and placed on chipped ice. After centrifugation, plasma was separated and stored at −20° C. until analysis. The mono-lysine salt of Iab (Form 3, Lot 1) was used for the pharmacokinetic studies. The dosing solutions of Iab were prepared in either sterile water (for IV administration in dogs and monkeys) or distilled water (for all other dose administration).
# Male Sprague-Dawley rats (300-350 g, Hilltop Lab Animals, Inc., Scottsdale, Pa.) with cannulas implanted in the jugular vein were used. The rats were fasted overnight in the PO pharmacokinetic studies. Blood samples were collected from the jugular vein.
# In the IV study, Iab was delivered at 1.4 mg/kg (free acid, or 1.1 mg/kg of IVa equivalent) as a bolus over 0.5 min (n=3).
# In the PO study, Iab was administered at 7.9 mg/kg (free acid, or 6.3 mg/kg of IVa equivalent) by oral gavage (n=3). The concentration of the dosing solution was 4.0 mg/mL, and the dosing volume was 2 mL/kg.
# The pharmacokinetic parameters of Iab and IVa were calculated by Non-Compartmental Analysis using the […]™ software program (version 4.0.2, InnaPhase Co., Philadelphia, Pa.). The Cmax and Tmax values were recorded directly from experimental observations. The AUC0-n and AUCtot values were calculated using the mixed log-linear trapezoidal summations. The total body clearance (Cl), mean residence time (MRT), and the steady state volume of distribution (Vss) were also calculated after intravenous administration. The absolute oral bioavailability (expressed as %) was estimated by taking the ratio of dose-normalized AUC values after oral doses to those after intravenous doses.
# as §1, with “Ibb” for “Iab”, “3)” for “3, Lot 1)”
# (§2) The Cmax and Tmax values were recorded directly from experimental observations. The AUC0-n and AUCtot values were calculated using the mixed log-linear trapezoidal summations. The total body clearance (Cl), mean residence time (MRT), and the steady state volume of distribution (Vss) were also calculated after intravenous administration. The absolute oral bioavailability (expressed as %) was estimated by taking the ratio of dose-normalized AUC values after oral doses to those after intravenous doses.
# In the IV study, Icb was delivered at 1.4 mg/kg (free acid, or 1.1 mg/kg of IVe equivalent) as a bolus over 0.5 min (n=3).
# In the PO study, Icb was administered at 6.9 mg/kg (free acid, or 5.6 mg/kg of IVe equivalent) by oral gavage (n=3).
# as §2
# [3] = cynomolgus monkey, plasma, monkey, historical parent, PO 5 mg/kg, read-out: Bioavailability (%)
# [4] = cynomolgus monkey, plasma, monkey, historical parent, PO 5 mg/kg, read-out: Tmax (hr), PO
# [5] = male, cynomolgus monkey, plasma, monkey, oral prodrug, read-out: Bioavailability (%) of parent from prodrug
# [6] = male, cynomolgus monkey, plasma, monkey, parent after oral prodrug (~4-6 mg/kg parent equivalent), read-out: Tmax (hr), PO
# [7] = Sprague-Dawley, plasma, historical parent, PO 5 mg/kg, read-out: Tmax (hr), PO
# [8] = male, Sprague-Dawley, plasma, oral prodrug, calculated from historical IV data of parent, read-out: Bioavailability (%) of parent from prodrug
# [9] = male, Sprague-Dawley, plasma, parent after oral prodrug (~5-6 mg/kg parent equivalent), read-out: Tmax (hr), PO
smiles,measurement,setting,value
"COc1ncc(OC)c2c(C(=O)C(=O)N3CCN(C(=O)c4ccccc4)CC3)c[nH]c12 [IVa, N-(benzoyl)-N′-[(4,7-dimethoxy-6-azaindol-3-yl)-oxoacetyl]piperazine]",AUC,"[1]; cynomolgus monkey, plasma, monkey, historical parent, IV 1 mg/kg, read-out: AUCtot (μM · hr), IV",9.2 ± 0.53 µM·h
same,clearance,"[1]; cynomolgus monkey, plasma, monkey, historical parent, IV 1 mg/kg, read-out: CLtot (mL/min/kg), IV",4.3 ± 0.26 mL/min/kg
same,MRT,"[1]; cynomolgus monkey, plasma, monkey, historical parent, IV 1 mg/kg, read-out: MRT (hr), IV",2.4 ± 0.15 h
same,Vd,"[1]; cynomolgus monkey, plasma, monkey, historical parent, IV 1 mg/kg, read-out: Vdss (L/kg), IV",0.63 ± 0.39 L/kg
same,half-life,"[1]; cynomolgus monkey, plasma, monkey, historical parent, IV 1 mg/kg, read-out: t1/2 (hr), IV (converted)",4.7 ± 0.31 h
same,AUC,"[1]; cynomolgus monkey, plasma, monkey, historical parent, PO 5 mg/kg, read-out: AUCtot (μM · hr), PO",27 ± 2.9 µM·h
same,bioavailability,[1]; [3],60%
same,concentration at 24 hr,"[1]; cynomolgus monkey, plasma, monkey, historical parent, PO 5 mg/kg, read-out: C-24 hr (μM), PO",0.074 ± 0.032 µM
same,Cmax,"[1]; cynomolgus monkey, plasma, monkey, historical parent, PO 5 mg/kg, read-out: Cmax (μM), PO",5.8 ± 1.2 µM
same,Tmax,[1]; [4],2.7 h
same,half-life,"[1]; cynomolgus monkey, plasma, monkey, historical parent, PO 5 mg/kg, read-out: t1/2 (hr), PO (converted)",4.2 ± 0.64 h
same,AUC,"[1]; male, cynomolgus monkey, plasma, monkey, after IV prodrug (~1.1 mg/kg parent equivalent), analyte = label, read-out: AUCtot (μM · hr), IV",7.1 ± 1 µM·h
same,half-life,"[1]; male, cynomolgus monkey, plasma, monkey, after IV prodrug, analyte = label, read-out: t1/2 (hr), IV (converted)",4.8 ± 1.9 h
same,bioavailability,[1]; [5],66%
same,Tmax,[1]; [6],0.83 h
same,half-life,"[1]; male, cynomolgus monkey, plasma, monkey, parent after oral prodrug, read-out: t1/2 (hr), PO (converted)",4.8 ± 1.3 h
same,IV AUC Ratio of parent (formed from prodrug vs historical parent study),[1]; monkey,0.70
same,PO AUC Ratio of parent,"[1]; monkey, oral prodrug vs historical parent",1.1
same,AUC,"[2]; Sprague-Dawley, plasma, historical parent, IV 1 mg/kg, read-out: AUCtot (μM·hr), IV",3.3 ± 1.1 µM·h
same,MRT,"[2]; Sprague-Dawley, plasma, historical parent, IV 1 mg/kg, read-out: MRT (hr), IV",2.2 ± 1.5 h
same,Vd,"[2]; Sprague-Dawley, plasma, historical parent, IV 1 mg/kg, read-out: Vdss (L/kg), IV",1.5 ± 0.25 L/kg
same,half-life,"[2]; Sprague-Dawley, plasma, historical parent, IV 1 mg/kg, read-out: t1/2 (hr), IV (converted)",2.4 ± 0.32 h
same,Tmax,[2]; [7],2 h
same,half-life,"[2]; Sprague-Dawley, plasma, historical parent, PO 5 mg/kg, read-out: t1/2 (hr), PO (converted)",1.7 ± 0.92 h
same,"CLtot (mL/min/kg), IV","[2]; historical parent, IV 1 mg/kg",13 ± 4.0 mL/min/kg
same,"AUCtot (μM·hr), PO","[2]; historical parent, PO 5 mg/kg",15 ± 6.3 µM·h
same,Bioavailability (%),"[2]; historical parent, PO 5 mg/kg",90%
same,Cmax,"[2]; historical parent, PO 5 mg/kg, read-out: Cmax (μM), PO",4.5 ± 1.5 µM
same,AUC,"[2]; male, Sprague-Dawley, plasma, 7.9 mg/kg, after oral prodrug, analyte = label, ND = not detected (<5 nM), read-out: AUCtot (μM·hr), PO",13 ± 1.4 µM·h
same,Cmax,"[2]; male, Sprague-Dawley, plasma, 7.9 mg/kg, after oral prodrug, analyte = label, ND = not detected (<5 nM), read-out: Cmax (μM), PO",3.9 ± 0.98 µM
same,half-life,"[2]; male, Sprague-Dawley, plasma, 7.9 mg/kg, parent after oral prodrug, read-out: t1/2 (hr), PO (converted)",1.5 ± 0.24 h
same,AUC,"[2]; male, Sprague-Dawley, plasma, after IV prodrug (~1 mg/kg parent equivalent), analyte = label, read-out: AUCtot (μM·hr), IV",5.4 ± 0.93 µM·h
same,half-life,"[2]; male, Sprague-Dawley, plasma, after IV prodrug, analyte = label, read-out: t1/2 (hr), IV (converted)",4.4 ± 1.9 h
same,bioavailability,[2]; [8],62%
same,Tmax,[2]; [9],0.83 h
same,PO AUC Ratio of parent,[2]; oral prodrug vs historical parent,0.69*
same,bioavailability,"[2]; plasma, po, range over rats, dogs and monkeys, read-out: oral bioavailabilities of parent after administration of prodrug",62 to 94%
O=C(C(=O)N1CCN(C(=O)c2ccccc2)CC1)c1c[nH]c2c(-n3ccnn3)ncc(F)c12 [IVb],AUC,"[1]; cynomolgus monkey, plasma, iv, 1 mg/kg, read-out: AUCtot",10 ± 1.2 µM·h
same,clearance,"[1]; cynomolgus monkey, plasma, iv, 1 mg/kg, read-out: CLtot",3.7 ± 0.43 mL/min/kg
same,MRT,"[1]; cynomolgus monkey, plasma, iv, 1 mg/kg, read-out: MRT",5.6 ± 6.3 h
same,half-life,"[1]; cynomolgus monkey, plasma, iv, 1 mg/kg, read-out: T1/2 (converted)",19 ± 20 h
same,Vd,"[1]; cynomolgus monkey, plasma, iv, 1 mg/kg, read-out: Vdss",1.2 ± 1.4 L/kg
same,concentration at 24 h,"[1]; cynomolgus monkey, plasma, oral, 5 mg/kg, read-out: C-24 hr",0.24 µM
same,AUC,"[1]; cynomolgus monkey, plasma, po, 5 mg/kg, read-out: AUCtot",24 µM·h
same,Cmax,"[1]; cynomolgus monkey, plasma, po, 5 mg/kg, read-out: Cmax",4.2 µM
same,half-life,"[1]; cynomolgus monkey, plasma, po, 5 mg/kg, read-out: T1/2 (converted)",11 h
same,bioavailability,[1]; [3],49%
same,Tmax,[1]; [4],2.5 h
same,half-life,"[1]; male, cynomolgus monkey, plasma, iv, […], read-out: T1/2 (converted)",6.5 ± 2.4 h
same,bioavailability,"[1]; male, cynomolgus monkey, plasma, oral, […], read-out: Bioavailability",187%
same,half-life,"[1]; male, cynomolgus monkey, plasma, po, […], read-out: T1/2 (converted)",4.1 ± 1.1 h
same,Tmax,"[1]; male, cynomolgus monkey, plasma, po, […], read-out: Tmax",1.5 ± 0.87 h
same,bioavailability,[1]; [5],187%
same,Tmax,[1]; [6],1.5 h
same,Vdss,"[2]; IV IVb 1 mg/kg, historical IVb",0.49 ± 0.26 L/kg
same,bioavailability,"[2]; Sprague-Dawley (rats), breed of dogs and monkeys not stated, plasma, po, range over rats, dogs and monkeys, read-out: oral bioavailabilities of parent after administration of prodrug",50 to 310%
same,bioavailability,"[2]; Sprague-Dawley, plasma, historical parent, PO 5 mg/kg, read-out: Bioavailability (%)",60%
same,Tmax,[2]; [7],4.7 h
same,AUC,"[2]; in vivo, po, 5 mg/kg, read-out: AUCtot",86 ± 33 µM·h
same,Cmax,"[2]; in vivo, po, 5 mg/kg, read-out: Cmax",9.5 ± 2.8 µM
same,half-life,"[2]; male, Sprague-Dawley, plasma, iv, […], read-out: T1/2 (converted)",3 ± 1.8 h
same,bioavailability,[2]; [8],50%
same,Tmax,[2]; [9],0.83 h
same,Cmax,"[2]; male, Sprague-Dawley, plasma, po, 6.6 mg/kg, read-out: Cmax",19 ± 1.8 µM
same,Tmax,"[2]; male, Sprague-Dawley, plasma, po, 6.6 mg/kg, read-out: Tmax",0.83 ± 0.14 h
same,AUC,"[2]; plasma, iv, 1 mg/kg, read-out: AUCtot",24 ± 3.2 µM·h
same,MRT,"[2]; plasma, iv, 1 mg/kg, read-out: MRT",5.6 ± 3.6 h
same,half-life,"[2]; plasma, iv, 1 mg/kg, read-out: T1/2 (converted)",5.9 ± 4.9 h
same,concentration at 24 h,"[2]; plasma, oral, 5 mg/kg, read-out: C-24 hr",0.16 µM
same,bioavailability,"[2]; plasma, po, 5 mg/kg, read-out: Bioavailability",60%
same,half-life,"[2]; plasma, po, 5 mg/kg, read-out: T1/2 (converted)",3.7 ± 0.86 h
same,Tmax,"[2]; plasma, po, 5 mg/kg, read-out: Tmax",4.7 ± 1.2 h
